For one test, the target named is bovine cardiac myosin (Bos taurus, UniProt Q9BE39). The test is described as follows: Myosin activation assay (PK/LDH-coupled ATPase, bovine cardiac myofibrils). It is filed as biochemical. Particulars: AC20 = concentration at which total response is increased by twenty percent. In short, it runs like this:
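Values are the concentrations raising the ATPase rate by 20% or 50% over DMSO, from 10-point dose responses fitted with four parameters. Rate is NADH loss at 340 nm via PK/LDH coupling, read 15 min at room temperature, in pH 6.8 PIPES with 50 μM ATP. Bovine cardiac myofibrils were held at pCa ~6 or pCa 10.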

Test [1] relates to adult rat ventricular myocytes. The test is described as follows: Cardiomyocyte contractility assay (IonOptix edge detection, fractional shortening). It counts as cell-based. As to conditions: 1 Hz pacing; for Activity at 1.0 uM (fractional shortening activation over basal): 1.0 uM compound; for Activity at 3.0 uM (fractional shortening activation over basal): 3.0 uM compound; for Activity at 10 uM (fractional shortening activation over basal): 10 uM compound. The protocol: Contractility of adult rat ventricular myocytes is determined by edge detection with an IonOptix contractility system. Aliquots of myocytes in Tyrode buffer (137 mM NaCl, 3.7 mM KCl, 0.5 mM MgCl2, 1.5 mM CaCl2), 4 mM HEPES, 11 mM glucose) are placed in a perfusion chamber (Series 20 RC-27NE; Warner Instruments), allowed to adhere to the coverslip, and then perfused with 37° C. Tyrode buffer. Myocytes are filed stimulated at 1 Hz and 10V. Only myocytes with clear striations, quiescent prior to pacing, with a cell length of 120-180 microns, a basal fractional shortening equal to 3-8% of the cell length, and a contraction velocity greater than 100 microns per second are used for contractility experiments. To determine the response to compounds, myocytes are first perfused for 60 seconds with Tyrodes buffer followed by 5 minutes of compound and a 140 second washout with Tyrodes buffer. Data is continuously recorded using IonOptix software. Contractility data is analyzed using Ionwizard software (IonOptix). For each cell, 10-20 contractility transients were averaged and compared under basal (no compound) and compound-treated conditions. Compound activity is measured by effects on fractional shortening (FS), where fractional shortening is the ratio of the peak length of the cell at contraction divided by the basal cell length normalized to 100% for an untreated cell.

Counter-ions that a name gives are not always drawn.

Chain of bovine cardiac myosin (Q9BE39 whole entry): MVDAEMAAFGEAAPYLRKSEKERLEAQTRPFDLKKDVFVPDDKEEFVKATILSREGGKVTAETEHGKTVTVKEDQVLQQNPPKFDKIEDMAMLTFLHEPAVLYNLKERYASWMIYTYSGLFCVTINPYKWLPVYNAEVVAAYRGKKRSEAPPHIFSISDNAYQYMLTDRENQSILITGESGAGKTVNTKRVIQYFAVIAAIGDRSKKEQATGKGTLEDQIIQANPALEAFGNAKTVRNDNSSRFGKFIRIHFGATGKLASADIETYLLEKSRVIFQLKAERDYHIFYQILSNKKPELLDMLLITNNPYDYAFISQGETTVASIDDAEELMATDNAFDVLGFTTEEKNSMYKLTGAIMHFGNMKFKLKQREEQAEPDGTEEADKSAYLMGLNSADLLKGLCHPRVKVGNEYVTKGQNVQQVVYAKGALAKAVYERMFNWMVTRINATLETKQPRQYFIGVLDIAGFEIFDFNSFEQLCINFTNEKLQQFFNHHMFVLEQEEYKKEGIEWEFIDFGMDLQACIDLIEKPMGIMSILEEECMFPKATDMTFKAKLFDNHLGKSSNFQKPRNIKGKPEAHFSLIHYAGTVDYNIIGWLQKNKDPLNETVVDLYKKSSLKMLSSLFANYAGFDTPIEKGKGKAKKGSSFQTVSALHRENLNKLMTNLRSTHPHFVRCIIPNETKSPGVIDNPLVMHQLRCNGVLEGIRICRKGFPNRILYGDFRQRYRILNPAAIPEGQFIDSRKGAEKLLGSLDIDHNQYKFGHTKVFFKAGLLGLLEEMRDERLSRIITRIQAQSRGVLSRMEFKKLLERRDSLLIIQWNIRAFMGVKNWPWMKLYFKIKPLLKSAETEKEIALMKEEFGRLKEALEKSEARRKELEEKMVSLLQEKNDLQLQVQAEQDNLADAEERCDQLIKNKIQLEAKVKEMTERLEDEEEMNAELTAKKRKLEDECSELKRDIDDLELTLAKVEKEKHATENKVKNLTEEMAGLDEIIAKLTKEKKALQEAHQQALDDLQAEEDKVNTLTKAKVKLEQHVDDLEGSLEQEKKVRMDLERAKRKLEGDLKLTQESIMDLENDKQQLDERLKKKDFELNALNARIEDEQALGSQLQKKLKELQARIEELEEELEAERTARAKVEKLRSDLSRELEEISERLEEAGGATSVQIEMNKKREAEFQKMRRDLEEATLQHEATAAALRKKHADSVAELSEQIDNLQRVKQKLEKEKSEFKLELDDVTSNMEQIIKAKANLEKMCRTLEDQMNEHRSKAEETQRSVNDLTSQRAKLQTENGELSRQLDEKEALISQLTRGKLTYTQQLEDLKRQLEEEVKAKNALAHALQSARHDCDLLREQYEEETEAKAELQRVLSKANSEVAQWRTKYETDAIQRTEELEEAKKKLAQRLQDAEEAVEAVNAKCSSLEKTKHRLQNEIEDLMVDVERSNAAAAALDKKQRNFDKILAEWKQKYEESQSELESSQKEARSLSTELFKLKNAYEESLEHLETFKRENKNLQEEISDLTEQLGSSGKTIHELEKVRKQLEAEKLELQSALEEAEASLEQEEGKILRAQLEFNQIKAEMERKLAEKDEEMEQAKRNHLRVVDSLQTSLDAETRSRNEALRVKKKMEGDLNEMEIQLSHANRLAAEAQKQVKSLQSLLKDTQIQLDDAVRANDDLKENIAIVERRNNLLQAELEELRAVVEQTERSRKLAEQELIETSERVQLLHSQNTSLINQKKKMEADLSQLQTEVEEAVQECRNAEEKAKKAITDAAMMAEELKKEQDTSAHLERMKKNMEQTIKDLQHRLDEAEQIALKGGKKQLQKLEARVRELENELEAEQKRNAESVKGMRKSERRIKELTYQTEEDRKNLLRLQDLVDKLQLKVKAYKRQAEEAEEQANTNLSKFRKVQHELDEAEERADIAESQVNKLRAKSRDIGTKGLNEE
Chain of bovine cardiac myosin (P85100 whole entry partner): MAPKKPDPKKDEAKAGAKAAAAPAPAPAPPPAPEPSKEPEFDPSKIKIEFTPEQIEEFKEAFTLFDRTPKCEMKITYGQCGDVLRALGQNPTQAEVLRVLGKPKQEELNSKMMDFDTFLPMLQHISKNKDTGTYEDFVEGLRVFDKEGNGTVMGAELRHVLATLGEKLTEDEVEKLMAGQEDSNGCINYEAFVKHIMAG
Chain of bovine cardiac myosin (Q3SZE5 whole entry partner): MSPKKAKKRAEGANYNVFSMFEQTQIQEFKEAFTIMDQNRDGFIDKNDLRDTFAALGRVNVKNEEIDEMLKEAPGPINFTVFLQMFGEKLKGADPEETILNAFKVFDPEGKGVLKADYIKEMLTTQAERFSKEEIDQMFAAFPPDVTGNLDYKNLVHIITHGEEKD

For `Cn1cc(S(=O)(=O)[C@@](C)(F)C2CCN(C(=O)Nc3ccon3)CC2)c(C(F)F)n1` [Compound 20, (R)-4-(1-((3-(Difluoromethyl)-1-methyl-1H-pyrazol-4-yl)sulfonyl)-1-fluoroethyl)-N-(isoxazol-3-yl)piperidine-1-carboxamide], at bovine cardiac myosin, the “Myosin Activation (AC20)” value is “+++ (+++ represents myosin activation value AC20 < 2 μM)”. In addition, in test [1], the “Activity at 1.0 uM (fractional shortening activation over basal)” value is given as “+ (+ represents fractional shorting activation <20% over basal)” and the “Activity at 3.0 uM (fractional shortening activation over basal)” value is “++ (++ represents fractional shorting activation values from 20% to 50% over basal)”. Consider `CC(C)(C1CCN(C(=O)Nc2ccncc2)CC1)S(=O)(=O)c1cccc(F)c1` [Compound 32, 4-(2-((3-fluorophenyl)sulfonyl)propan-2-yl)-N-(pyridin-4-yl)piperidine-1-carboxamide], for which, at bovine cardiac myosin, the “Myosin Activation (AC20)” value was “+++ (+++ represents myosin activation value AC20 < 2 μM)”. Also, in test [1], the “Activity at 1.0 uM (fractional shortening activation over basal)” value was “++ (++ represents fractional shorting activation values from 20% to 50% over basal)”. With `COc1ccc(S(=O)(=O)C(C)(F)C2CCN(C(=O)Nc3ccon3)CC2)cn1` (centres unmarked) [Compound 246, 4-(1-fluoro-1-((6-methoxypyridin-3-yl)sulfonyl)ethyl)-N-(isoxazol-3-yl)piperidine-1-carboxamide], at bovine cardiac myosin, the “Myosin Activation (AC20)” value is recorded as “++ (++ represents myosin activation value AC20 from 2 μM-5 μM)”. In test [1], the “Activity at 3.0 uM (fractional shortening activation over basal)” value is recorded as “+++ (+++ represents fractional shortening activation values greater than 50% over basal)”. For `CC(C)(C1CCN(C(=O)Nc2ccnnc2)CC1)S(=O)(=O)c1cccc(F)c1` [Compound 7, 4-(2-((3-fluorophenyl)sulfonyl)propan-2-yl)-N-(pyridazin-4-yl)piperidine-1-carboxamide], the “Myosin Activation (AC20)” value at bovine cardiac myosin is listed as “+++ (+++ represents myosin activation value AC20 < 2 μM)”. Moreover, in test [1], the “Activity at 1.0 uM (fractional shortening activation over basal)” value was “++ (++ represents fractional shorting activation values from 20% to 50% over basal)” and the “Activity at 10 uM (fractional shortening activation over basal)” value was “++ (++ represents fractional shorting activation values from 20% to 50% over basal)”. For `Cn1nc(C(F)(F)F)cc1S(=O)(=O)[C@@](C)(F)C1CCN(C(=O)Nc2ccon2)CC1` [Compound 18, (R)-4-(1-Fluoro-1-((1-methyl-3-(trifluoromethyl)-1H-pyrazol-5-yl)sulfonyl)ethyl)-N-(isoxazol-3-yl)piperidine-1-carboxamide], at bovine cardiac myosin, the “Myosin Activation (AC20)” value is “+++ (+++ represents myosin activation value AC20 < 2 μM)”. Further, the “Activity at 1.0 uM (fractional shortening activation over basal)” value in test [1] is given as “+++ (+++ represents fractional shortening activation values greater than 50% over basal)”. Consider `O=C(Nc1ccnnc1)N1CCC(C(F)(F)S(=O)(=O)c2cccc(F)c2)CC1` [Compound 5, 4-(Difluoro((3-fluorophenyl)sulfonyl)methyl)-N-(pyridazin-4-yl)piperidine-1-carboxamide], for which the “Myosin Activation (AC20)” value on bovine cardiac myosin is recorded as “++ (++ represents myosin activation value AC20 from 2 μM-5 μM)”. Further, in test [1], the “Activity at 1.0 uM (fractional shortening activation over basal)” value is on record as “++ (++ represents fractional shorting activation values from 20% to 50% over basal)” and the “Activity at 10 uM (fractional shortening activation over basal)” value was “+++ (+++ represents fractional shortening activation values greater than 50% over basal)”. As for `C[C@](F)(C1CCN(C(=O)Nc2ccnc(CO)c2)CC1)S(=O)(=O)c1cccc(F)c1` [Compound 287, (R)-4-(1-fluoro-1-((3-fluorophenyl)sulfonyl)ethyl)-N-(2-(hydroxymethyl)pyridin-4-yl)piperidine-1-carboxamide], the “Myosin Activation (AC20)” value at bovine cardiac myosin is given as “+++ (+++ represents myosin activation value AC20 < 2 μM)”. Besides, in test [1], the “Activity at 1.0 uM (fractional shortening activation over basal)” value is recorded as “++ (++ represents fractional shorting activation values from 20% to 50% over basal)” and the “Activity at 3.0 uM (fractional shortening activation over basal)” value is on record as “++ (++ represents fractional shorting activation values from 20% to 50% over basal)”.

As to `CC(F)(C1CCN(C(=O)Nc2ccnnc2)CC1)S(=O)(=O)c1cccc(F)c1` (centres unmarked) [Compound 6, 4-(1-Fluoro-1-((3-fluorophenyl)sulfonyl)ethyl)-N-(pyridazin-4-yl)piperidine-1-carboxamide trifluoroacetic acid salt], the “Myosin Activation (AC20)” value on bovine cardiac myosin is “++ (++ represents myosin activation value AC20 from 2 μM-5 μM)”. The “Activity at 10 uM (fractional shortening activation over basal)” value in test [1] is “++ (++ represents fractional shorting activation values from 20% to 50% over basal)”. As to `Cn1cc(S(=O)(=O)C(C)(C)C2CCN(C(=O)Nc3ccon3)CC2)c(C(F)F)n1` [Compound 149, 4-(2-((3-(difluoromethyl)-1-methyl-1H-pyrazol-4-yl)sulfonyl)propan-2-yl)-N-(isoxazol-3-yl)piperidine-1-carboxamide], the “Myosin Activation (AC20)” value at bovine cardiac myosin is listed as “++ (++ represents myosin activation value AC20 from 2 μM-5 μM)”. Further, the “Activity at 3.0 uM (fractional shortening activation over basal)” value in test [1] is recorded as “++ (++ represents fractional shorting activation values from 20% to 50% over basal)”.

Turning to `Cn1nc(Cl)cc1S(=O)(=O)C(C)(C)C1CCN(C(=O)Nc2ccon2)CC1` [Compound 129, 4-(2-((3-chloro-1-methyl-1H-pyrazol-5-yl)sulfonyl)propan-2-yl)-N-(isoxazol-3-yl)piperidine-1-carboxamide], on bovine cardiac myosin, the “Myosin Activation (AC20)” value is “+++ (+++ represents myosin activation value AC20 < 2 μM)”. Besides, in test [1], the “Activity at 3.0 uM (fractional shortening activation over basal)” value is on record as “+++ (+++ represents fractional shortening activation values greater than 50% over basal)”. In the case of `Cc1ccc(NC(=O)N2CCC(C(C)(C)S(=O)(=O)c3cc(C(F)F)nn3C)CC2)cn1` [Compound 107, 4-(2-((3-(difluoromethyl)-1-methyl-1H-pyrazol-5-yl)sulfonyl)propan-2-yl)-N-(6-methylpyridin-3-yl)piperidine-1-carboxamide], the “Myosin Activation (AC20)” value on bovine cardiac myosin is reported as “++ (++ represents myosin activation value AC20 from 2 μM-5 μM)”. Still for that read-out and setting: then `Cn1cc(S(=O)(=O)C(F)(F)C2CCN(C(=O)Nc3ccnc(F)c3)CC2)c(C(F)F)n1` [Compound 79, 4-(((3-(difluoromethyl)-1-methyl-1H-pyrazol-4-yl)sulfonyl)difluoromethyl)-N-(2-fluoropyridin-4-yl)piperidine-1-carboxamide], with “+ (+ represents myosin activation value AC20 > 5 μM)”; and `Cn1nc(C(F)(F)F)cc1S(=O)(=O)[C@@](C)(F)C1CCN(C(=O)Nc2ccnc(F)c2)CC1` [Compound 296, (R)-4-(1-fluoro-1-((1-methyl-3-(trifluoromethyl)-1H-pyrazol-5-yl)sulfonyl)ethyl)-N-(2-fluoropyridin-4-yl)piperidine-1-carboxamide], with “+++ (+++ represents myosin activation value AC20 < 2 μM)”; and `CC(F)(C1CCN(C(=O)Nc2ccc(F)nc2)CC1)S(=O)(=O)c1cccc(F)c1` (centres unmarked) [Compound 239, 4-(1-fluoro-1-((3-fluorophenyl)sulfonyl)ethyl)-N-(6-fluoropyridin-3-yl)piperidine-1-carboxamide], with “++ (++ represents myosin activation value AC20 from 2 μM-5 μM)”. Turning to `Cc1ccc(NC(=O)N2CCC(C(C)(F)S(=O)(=O)c3cccc(F)c3)CC2)cn1` (centres unmarked) [Compound 295, 4-(1-fluoro-1-((3-fluorophenyl)sulfonyl)ethyl)-N-(6-methylpyridin-3-yl)piperidine-1-carboxamide], on bovine cardiac myosin, the “Myosin Activation (AC20)” value is on record as “+ (+ represents myosin activation value AC20 > 5 μM)”.

(Values after patent publication US11123337B2, “4-methylsulfonyl-substituted piperidine urea compounds” (MYOKARDIA, INC., priority 2015, dated 2021).)
